The record followed here is patent US12521448B2, “Preparation of solid cyclodextrin complexes for ophthalmic active pharmaceutical ingredient delivery” (Oculis Operations Sarl, priority 2016, dated 2026).

Series [1] is described as follows: Degradation on heating of drug suspensions in aqueous γ-cyclodextrin solutions (autoclave vs 95° C.). Particulars: autoclaving with γ-cyclodextrin. It counts as physicochemical.
Excerpt: Diclofenac is suspended in aqueous solutions containing from 1% (w/v) to 15% (w/v) γ-cyclodextrin.
Series [2] can be described thus: Dehydration of dexamethasone to 16,17-unsaturated dexamethasone and dexamethasone enol aldehydes during preparation/autoclaving of eye drops. It counts as physicochemical. Particulars: aqueous eye drops. Here is the method:
The dehydration of dexamethasone during preparation of the aqueous dexamethasone eye drops described in Example 1 (formulations F1, F2, F3, F4, F5 and F6) is determined by quantitative determination of 16,17-unsaturated dexamethasone and the dexamethasone enol aldehydes in the eye drops after manufacturing. Formulations F12, F13 and F14 are prepared as described in F1, that is by dissolving or suspending the ingredients, including dexamethasone, in pure water and autoclaving the mixture in sealed vial at 121° C. for 20 minutes. The substantially clear aqueous vials are removed from the autoclave and become cloudy upon cooling at ambient conditions. […] F13 comprises dexamethasone and γ-cyclodextrin suspended in pure water. F14 comprises dexamethasone suspended in pure water. The effect of excipients and preparation methods on the formation of 16,17-unsaturated dexamethasone and the dexamethasone enol aldehydes is presented as the fraction (in %) of dexamethasone degraded to form 16,17-unsaturated dexamethasone and the dexamethasone enol aldehydes.
The amount of 16,17-unsaturated dexamethasone and dexamethasone enol aldehydes formed, presented as the fraction (in %) of dexamethasone degraded to form 16,17-unsaturated dexamethasone and dexamethasone enol aldehydes, in aqueous eye drops after no autoclaving (i.e., heating to 121° C. for 20 minutes) once, twice and three times is shown in Table 3. […]

Take `O=C(O)Cc1ccccc1Nc1c(Cl)cccc1Cl` [Diclofenac, diclofenac]: in series [1], the “effect of γ-cyclodextrin on aqueous diclofenac solutions during autoclaving” value is reported as “intense coloring”.

For the compound `C[C@@H]1C[C@H]2[C@@H]3CCC4=CC(=O)C=C[C@]4(C)[C@@]3(F)[C@@H](O)C[C@]2(C)[C@@]1(O)C(=O)CO` [dexamethasone], the “fraction of dexamethasone degraded to 16,17-unsaturated dexamethasone and dexamethasone enol aldehydes” value (shortened to “fraction of dexamethasone degraded”) is recorded as 0.08% in series [2] (pH 2.5, 0 autoclaving cycles (121° C., 20 min)); 1.06% in series [2] (pH 2.5, 1 autoclaving cycle (121° C., 20 min)); 2.29% in series [2] (pH 2.5, 2 autoclaving cycles (121° C., 20 min)); 3.12% in series [2] (pH 2.5, 3 autoclaving cycles (121° C., 20 min)); 0.08% in series [2] (pH 4.0, 0 autoclaving cycles (121° C., 20 min)); 1.14% in series [2] (pH 4.0, 1 autoclaving cycle (121° C., 20 min)). The “fraction of dexamethasone degraded” value in series [2] (pH 4.0, 2 autoclaving cycles (121° C., 20 min)) was found to be 2.19%; in series [2] (pH 4.0, 3 autoclaving cycles (121° C., 20 min)) it was 3.03%; in series [2] (pH 5.5, 0 autoclaving cycles (121° C., 20 min)), 0.08%; in series [2] (pH 5.5, 1 autoclaving cycle (121° C., 20 min)), 1.22%; in series [2] (pH 5.5, 2 autoclaving cycles (121° C., 20 min)) it was 2.27%; in series [2] (pH 5.5, 3 autoclaving cycles (121° C., 20 min)), 3.46%. Also, the “fraction of dexamethasone degraded” value in series [2] (pH 7.0, 0 autoclaving cycles (121° C., 20 min)) was determined as 0.08%; in series [2] (pH 7.0, 1 autoclaving cycle (121° C., 20 min)), 0.86%; in series [2] (pH 7.0, 2 autoclaving cycles (121° C., 20 min)), 1.64%; in series [2] (pH 7.0, 3 autoclaving cycles (121° C., 20 min)), 2.57%.
